“Also recorded” adds a separate entry of the source. Read-outs that look alike come from different tables or passages of the source.
What was measured:
[1] = biological target: T1, AP-2 alpha ear binding to amphiphysin 1 (Mus musculus, UniProt P17427); test: ELISA-based AP-2 binding assay
T1 construct: GST-AP-2 α-appendage (amino acids 702–938); made in house; host or cells: bacteria
Protocol: (§1) The assay for the interaction of amphiphysin with either clathrin or AP2 was based on our previous report (11). Bacterially expressed recombinant purified His6-tagged amphiphysin 1 PRD+CLAP domains (amino acids 250-578) in screening buffer (20 mM HEPES, pH 7.4, 50 mM NaCl, 1 mM DTT, 1 mM PMSF) was added to a 384 well ELISA plate (high-binding PS Microplate, Greiner Bio-One) and bound to the plastic at room temperature for 1 hr. Non-specific binding was reduced by overnight incubation with 50 µL blocking buffer (20 mM HEPES, pH 7.4, 50 mM NaCl, 1 mM PMSF, 2 % BSA, 2.5 % skim milk) at 4 °C. Following extensive washes (with 20 mM HEPES, pH 7.4, 50 mM NaCl, 0.05 % Tween 20), chemical compounds diluted in DMSO (10 µL) were added and incubated together with bacterially expressed recombinant GST-tagged clathrin heavy chain TD (amino acids 1-364) or GST-AP-2 α-appendage (amino acids 702–938) for 1 hr at room temperature in screening buffer. This incubation was in the presence of test compounds diluted in 1% DMSO or 1% DMSO alone as a control. After 3 washes, horseradish peroxidase-coupled anti-GST antibodies were added in screening buffer and the plate incubated for 15 min at room temperature. Following additional washes, 50 µL TMB (3,3′,5,5′-tetramethylbenzidine) (Pierce Biotechnology) chromogenic substrate of horseradish peroxidase was added and the plate was incubated for 20 min before the reaction was terminated by adding 50 µL 1 N sulfuric acid to produce a yellow colour. The amount of bound protein was determined by spectrophotometric measurement in a plate reader in triplicates. Relative binding was calculated as a percentage of the DMSO control.

[2] = system: HeLa cells; test: Trypan blue exclusion cell viability and proliferation assay; format: cell-based; conditions: 20 h exposure, with or without serum
Protocol: Cell viability and membrane integrity was assessed by the Trypan Blue exclusion assay. Cells were seeded into 10 cm dish at a density of 1 × 10^5 cells per dish. […] This was carried out in the presence and absence of FBS.

[3] = system: CT-555 uptake in NIH3T3 cells; format: cell-based; conditions: NIH3T3, 20, 50 or 80 μM
[4] = system: HeLa cells; test: LDH toxicity assay; format: cell-based; conditions: 8-h exposure, with or without serum
Protocol: Cytotoxicity was assayed by determination of lactate dehydrogenase (LDH) activity. HeLa cells were seeded in 96 well plates as described previously (11) Asynchronously growing cells were treated in the presence or absence of MiTMAB or the indicated Dyngo compound in the presence and absence of FCS at the indicated concentration for 8h. The supernatant (50 μL) was added to 100 μL of LDH assay reagent (Sigma- Aldrich) and the reaction was allowed to develop for 20 min. Absorbance was measured at 490 nm and 690 nm (plate background absorbance). Values were normalized to drug/media background value and toxicity was calculated as a % of a 100% lysed cell control.

[5] = biological target: T2, clathrin heavy chain binding to amphiphysin 1 (Homo sapiens, UniProt Q00610); test: ELISA-based clathrin binding assay; conditions: up to 300 μM
T2 construct: recombinant GST-tagged clathrin heavy chain TD (amino acids 1-364); made in house; host or cells: bacteria
T2 sequence (Q00610 1-364): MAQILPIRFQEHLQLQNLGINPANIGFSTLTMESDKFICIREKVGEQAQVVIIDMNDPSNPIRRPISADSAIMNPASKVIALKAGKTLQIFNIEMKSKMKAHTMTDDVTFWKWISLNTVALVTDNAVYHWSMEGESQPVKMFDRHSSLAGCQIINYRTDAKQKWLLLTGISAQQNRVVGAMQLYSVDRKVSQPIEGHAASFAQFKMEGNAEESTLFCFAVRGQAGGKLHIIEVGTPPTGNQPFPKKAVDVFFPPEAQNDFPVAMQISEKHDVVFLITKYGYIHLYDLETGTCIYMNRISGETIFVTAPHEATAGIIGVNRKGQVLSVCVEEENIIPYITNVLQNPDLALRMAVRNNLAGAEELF
Protocol: as §1

[6] = system: Tfn-A594 uptake in U2OS cells; test: Automated quantitative CME assay: Tfn-A594 uptake; format: cell-based; conditions: for recovery of normal non-neuronal CME after wash out: 10 μM for 30 min; for fold less potent CME inhibition in presence of serum protein: 5 or 10% FBS or 1% BSA versus none; for IC50: Homo sapiens
Protocol: To determine whether the Dyngo compounds are widespread cell‐permeable and endocytosis inhibitors, CME of fluorescent Tfn was compared in an automated quantitative endocytosis assay in U2OS cells. The assay consisted of over 1200 cells under serum‐free conditions; after preincubation with each analog for 30 min the uptake of fluorescent Tfn was measured. We refer to this endocytosis as non‐neuronal CME to distinguish it from CME of synaptic vesicles in presynaptic terminals of neurons, which is referred to as synaptic vesicle endocytosis (SVE). In these cells, Tfn uptake is presumed to be mediated by dynamin II, because this is the only isoform of dynamin that they express, as determined by western blot (Figure S6). […] There was no apparent correlation between in vitro and in‐cell activity, with potent dynamin‐active compounds like 1a and 14a having no effect on non‐neuronal CME (Table 1). This might be explained by low membrane permeability of these analogs, their cellular metabolism or rapid cellular efflux mechanisms.
Quantitative analysis of the inhibition of Alexa 594‐Tfn endocytosis in U2OS cells was performed on large numbers of serum‐starved cells as described 10. Synaptic vesicle recycling in cultured CGNs was monitored using FM1‐43 as described 57 (see Supporting Information). Dynamin‐independent endocytosis was measured using internalization of CT in NIH3T3 cells (using Tfn as a control) as described previously 58 with minor changes (see Supporting Information). The average number of cells for each data point was ˜1200. IC50 values were calculated using GraphPad Prism 5 and data were expressed as mean ± 95% confidence interval (CI) for three wells and ˜1200 cells.

[7] = biological target: T3, human serum albumin (Homo sapiens, UniProt P02768); test: Plasma protein binding on immobilized human serum albumin column; format: in vitro ADME; conditions: immobilized HSA column
T3 construct: purchased ChromTech Chiral‐HSA, 50 × 3.0 mm, 5 µm
Source text: Plasma protein binding was estimated using an immobilized human serum albumin column (ChromTech Chiral‐HSA, 50 × 3.0 mm, 5 µm) with gradient elution based on a previously published method 56.

[8] = system: rat brain synaptosomes; test: Synaptic vesicle endocytosis: FM4-64 uptake in synaptosomes; conditions: read-out: SVE IC50
[9] = then wash out up to 1 h / 60 min
[10] = Tfn-A594 uptake, U2OS, 30-min preincubation, serum-free, read-out: CME IC50
[11] = U2OS, 1 h incubation, 0.1% BSA, read-out: CME IC50, 0.1% BSA
[12] = U2OS, 1 h incubation, 1% BSA, read-out: CME IC50, 1% BSA
[13] = U2OS, 1 h incubation, 1% FBS, read-out: CME IC50, 1% FBS
[14] = U2OS, 1 h incubation, 5% FBS, read-out: CME IC50, 5% FBS
[15] = U2OS, 1 h incubation, 10% FBS, read-out: CME IC50, 10% FBS
[16] = U2OS, 1 h incubation, absence of FBS or BSA, read-out: CME IC50, 1 h

T3 sequence (P02768 25-609): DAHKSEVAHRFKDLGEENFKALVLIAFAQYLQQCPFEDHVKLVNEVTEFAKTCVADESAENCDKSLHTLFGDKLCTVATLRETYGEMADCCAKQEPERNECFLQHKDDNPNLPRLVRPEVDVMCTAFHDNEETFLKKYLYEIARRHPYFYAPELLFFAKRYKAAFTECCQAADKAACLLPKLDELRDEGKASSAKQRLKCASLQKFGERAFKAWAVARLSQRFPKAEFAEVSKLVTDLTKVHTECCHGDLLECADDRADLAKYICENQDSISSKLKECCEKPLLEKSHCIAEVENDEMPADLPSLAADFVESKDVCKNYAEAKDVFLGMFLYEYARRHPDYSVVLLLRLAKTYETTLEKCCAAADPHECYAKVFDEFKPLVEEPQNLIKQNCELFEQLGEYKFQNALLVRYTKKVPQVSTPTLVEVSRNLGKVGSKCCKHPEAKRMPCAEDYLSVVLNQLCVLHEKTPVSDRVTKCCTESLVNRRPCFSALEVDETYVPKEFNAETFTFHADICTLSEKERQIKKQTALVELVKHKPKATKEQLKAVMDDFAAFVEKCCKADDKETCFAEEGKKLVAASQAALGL
T1 sequence (P17427 702-938): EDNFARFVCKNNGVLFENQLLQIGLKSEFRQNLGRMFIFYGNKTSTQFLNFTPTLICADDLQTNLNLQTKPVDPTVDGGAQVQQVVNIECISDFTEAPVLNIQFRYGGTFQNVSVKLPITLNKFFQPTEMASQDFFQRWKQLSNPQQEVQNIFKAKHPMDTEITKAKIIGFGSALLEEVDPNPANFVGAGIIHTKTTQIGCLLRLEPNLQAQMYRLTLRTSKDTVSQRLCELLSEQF

SMILES	cell membrane integrity / viability by trypan blue exclusion [2]	effect on dynamin-independent endocytosis of cholera toxin [3]	generalized cytotoxicity by LDH activity [4]	inhibition of clathrin heavy chain binding to amphiphysin 1 [5]	recovery of normal non-neuronal CME after wash out [6, 9]	fold less potent CME inhibition in presence of serum protein [6]	IC50 [6, 10]	IC50 [6, 11]	IC50 [6, 12]	IC50 [6, 13]	IC50 [6, 14]	IC50 [6, 15]	IC50 [6, 16]	bound to human serum albumin [7]	IC50 [8]	IC50 AP-2 alpha ear binding to amphiphysin 1 ([1]; ELISA, n = 1 in triplicate)	also measured
O=C(N/N=C/c1cc(O)c(O)cc1O)c1cc2ccccc2cc1O [4a, (E)-3-Hydroxy-N'-(2,4,5-trihydroxybenzylidene) -2-naphthohydrazide]	do not affect cell viability	no effect; also recorded: much less effect; also recorded: does not block	did not exhibit generalized cytotoxicity	None of the compounds inhibited this interaction	over 80%	at least 20 fold	5.7 ± 1 µM	44 µM	83 ± 12 µM	23.7 ± 3.2 µM	102 µM	115 ± 7.5 µM	6.3 ± 3.6 µM	99.4 % bound	26.8 µM	–	times less potent on AP-2 binding than for dynamin I inhibition [1]: ~1000 times; IC50 ([1]; ELISA, n = 1 in triplicate): 362 µM; recovery of normal non-neuronal CME after wash out ([6]; then 10 min after removal): 70%; preincubation time required for complete abolition of Tfn uptake ([6]; U2OS, 10 μM): 30 min; shortest preincubation at which inhibition of CME was observed ([6]; U2OS, 10 μM): 5 min
O=C(N/N=C/c1cccc(O)c1O)c1cc2ccccc2cc1O [6a, (E)-N'-(2,3-Dihydroxybenzylidene)-3-hydroxy-2-naphthohydrazide]	do not affect cell viability	no effect	did not exhibit generalized cytotoxicity	None of the compounds inhibited this interaction	70%	at least 20 fold	5.8 ± 0.8 µM	46 µM	281 µM	16.5 µM	78 ± 7 µM	108 ± 15 µM	3.3 ± 0.6 µM	99.7 % bound	70.1 µM	no effect	times more potent than dynasore in CME assay ([6]; same conditions, U2OS Tfn uptake): six times more potent
O=C(N/N=C/c1ccc(O)c(O)c1)c1cc2ccccc2cc1O [Dynasore, (E)-N'-(3,4-Dihydroxybenzylidene)-3-hydroxy-2-naphthohydrazide]	do not affect cell viability	much less effect	did not exhibit generalized cytotoxicity	None of the compounds inhibited this interaction	–	–	34.7 ± 5.1 µM	277 µM	235 µM	57.8 µM	650 µM	532 µM	22.2 ± 6 µM	98.8 % bound	184 µM	no effect	–
